Source: patent US11013696B2, “Lipids and lipid compositions for the delivery of active agents” (Novartis AG, priority 2013, dated 2021)

Experiments:
[1] = Particle size and PDI of lipid nanoparticles by dynamic light scattering (Malvern Zetasizer); type: physicochemical
Description: The lipid nanoparticles have a size of about 1 to about 2,500 nm, about 10 to about 1,500 nm, about 20 to about 1,000 nm, in a sub-embodiment about 50 to about 600 nm, in a sub-embodiment about 50 to about 400 nm, in a sub-embodiment about 50 to about 250 nm, and in a sub-embodiment about 50 to about 150 nm. Unless indicated otherwise, all sizes referred to herein are the average sizes (diameters) of the fully formed nanoparticle, as measured by dynamic light scattering on a Malvern Zetasizer. The nanoparticle sample is diluted in phosphate buffered saline (PBS) so that the count rate is approximately 200-400 kcts. The data is presented as a weighted average of the intensity measure.
Unless indicated otherwise, all PDIs referred to herein are the PDI of the fully formed nanoparticle, as measured by dynamic light scattering on a Malvern Zetasizer. The nanoparticle sample was diluted in phosphate buffered saline (PBS) so that the count rate was approximately 200-400 kcts. The data is presented in Table 3 as a weighted average of the intensity measure.
Unless indicated otherwise, all particle size measurements referred to in Table 3 are the Z-average particle size of the fully formed nanoparticle, as measured by dynamic light scattering on a Malvern Zetasizer. The nanoparticle sample was diluted in phosphate buffered saline (PBS) so that the count rate is approximately 200-400 kcts.

human leptin [2] = assay: Human leptin in mouse plasma (ELISA) after IV tail vein injection of encapsulated leptin mRNA; type: in vivo; conditions: hLeptin
Experimental: Human leptin in mouse plasma was measured by ELISA. Antibodies purchased from the R&D Systems duoset (Cat #DY398E, part #840279 for capture antibody and part #840280 for detection antibody) were reconstituted using PBS and titered, again using PBS. The capture antibody was coated at 4 ug/ml in 30 ul/well on a white Nunc® Maxisorp 384 well plate (Cat #460372). After an overnight incubation at room temperature the capture antibody was aspirated and the plate blocked for 2 hours at room temperature with 90 ul/well of KPL milk blocker (Cat #50-82-00). Once the incubation was completed the plate was aspirated and recombinant standards and samples were added to the plate at 30 ul/well for 2 hours at 37° C. while shaking at 600 rpm. Sample/standard dilutions were made using casein sample diluent. Washing/aspiration 3 times with 100 ul/well followed, using Teknova plate wash solution (Cat #P1192). Next, detection antibody was diluted using casein detection antibody diluent to 12.5 ng/ml and added at 30 ul/well for 2 hours room temperature. After this incubation, the plate was washed again and a solution of poly-streptavidin-HRP (Cat #21140) at a 1:1250 dilution in HRP dilution buffer was added to each well (30 ul/well) and incubated for 30 minutes room temperature. A final wash/aspiration removed the HRP solution and a chemiluminescent substrate was added at 30 ul/well (Cat #1859678 & 1859679). The plate was quickly read using a SpectramaxM5 plate reader with a 50 ms integration time. The dynamic range of the ELISA is from 100-2,000 […] (6.25-125 pM) of human leptin. The assay is applicable to plasma from mice, rats and cynomolgus monkeys.
Before the tail vein injection, mouse body weights were recorded and diet weighted, with mice grouped according to their body weights. Mice were prepared by warming them under a heating lamp for ˜2 minutes, with the mice about 12 inches from heat lamp. […]
On day 0, animals were weighed and sorted according to average body weight. Mice were dosed, and food intake (FI) was recorded, on each of days 1-7 and days 9, 11, and 16.

mouse Erythropoietin = assay: Mouse EPO ELISA after IV injection of encapsulated mEPO mRNA; type: in vivo; conditions: 0.2 mpk, ob/ob
Experimental: A rat anti-mouse Erythropoietin antibody is coated on 384-well white microtiter plates overnight, then blocked for assay. Then, plasma samples are diluted in a casein-based sample diluent and incubated on the plate with buffer controls and mouse EPO standards. The plate is then washed to remove unbound material. A biotinylated rat anti-mouse Erythropoietin antibody is then added to the plate to detect mouse EPO bound by the capture antibody. The plate is washed again and a streptavidin-conjugated horseradish peroxidase reagent is incubated on the plate. A third wash step is performed and a chemiluminescent reagent is added to the plate and immediately read by a capable plate reader using all wavelengths and a 50 millisecond integration time. Unknown samples are interpolated off the mouse EPO standard curve.

human leptin [3] = assay: Human leptin in mouse plasma (ELISA) after subcutaneous injection of encapsulated leptin mRNA; type: in vivo; conditions: hLeptin, 0.2 mpk
Factor VII = assay: Mouse Factor VII dosing and plasma Factor VII activity assay (FVII siRNA LNP, IV); type: in vivo; conditions: 0.03 mpk, XXX mice
Experimental: Female CD-1 mice were received from Harlan Labs and maintained on standard lab chow and water ad libitum. The animals weighed approximately 25 gr at time of dosing. Formulated Factor VII siRNA was administered as a single dose intravenously via the lateral tail vein. Approximately 48 hours after injection, the mice were euthanized by CO2 inhalation followed by exsanguination through the vena cava.
Plasma collected from injected mice was assayed for Factor VII enzyme activity using the Biophen FVII kit from Hyphen Biomedical (catalog number 221304). An assay standard curve was prepared using pooled plasma aliquots from the vehicle control animals. All samples were diluted to fall within the linear range of the standard curve and Factor VII activity relative to control plasma was reported.
Lipid nanoparticles comprising lipid compounds of formula (I) and the FVII siRNA duplex sequence listed above were tested in the Factor VII Activity Assay. The results of this assay are given in Table 34 below as a percent knock down of plasma Factor VII enzyme activity at a dose of 0.3 mg/kg and 0.03 mg/kg.

| SMILES | PDI ([1]; FLuc mRNA LNP) | Size ([1]; FLuc mRNA LNP) [nm] | PDI ([1]; Gluc mRNA LNP) | Size ([1]; Gluc mRNA LNP) [nm] | PDI ([1]; hFIX mRNA LNP) | Size ([1]; hFIX mRNA LNP) [nm] | PDI ([1]; hLep plasmid LNP) | Size ([1]; hLep plasmid LNP) [nm] | PDI ([1]; hLeptin mRNA LNP) | Size ([1]; hLeptin mRNA LNP) [nm] | PDI ([1]; mEPO mRNA LNP) | Size ([1]; mEPO mRNA LNP) [nm] | PDI ([1]; pDNA LNP) | Size ([1]; pDNA LNP) [nm] | Expression of protein following SC injection of encapsulated mRNA (human leptin [3]; ob/ob) [ng/mL] | PDI ([1]; FVII siRNA LNP) | Size ([1]; FVII siRNA LNP) [nm] | also measured |
| --- | --- | --- | --- | --- | --- | --- | --- | --- | --- | --- | --- | --- | --- | --- | --- | --- | --- | --- |
| CCCCCCCCCCCCC(CCOC(=O)CCCCC(COC(=O)CCCCCCC)COC(=O)CCCCCCC)OC(=O)OCCCN(CC)CC (centres unmarked) [Example 1, 2-(10-dodecyl-3-ethyl-8,14-dioxo-7,9,13-trioxa-3-azaoctadecan-18-yl)propane-1,3-diyl dioctanoate] | 0.100 | 108.8 | 0.093 | 84.7 | 0.082 | 95.5 | 0.138 | 109.8 | 0.071 | 128.1 | 0.073 | 104.1 | 0.135 | 110 | 16.2 |  |  | Expression of protein following IV injection of encapsulated mRNA (human leptin [2]; 0.4mpk, C57): 66.3 ng/mL; Expression of protein following IV injection of encapsulated mRNA (mouse Erythropoietin): 247.6 ng/mL; Expression of protein following SC injection of encapsulated mRNA (human leptin [3]; C57): 1.2 ng/mL |
| CCCCCCCCCCCCC(CCOC(=O)CCCCC(OCCCCCCCC)OCCCCCCCC)OC(=O)OCCCN(CC)CC (centres unmarked) [Example 16, 3-(((3-(diethylamino)propoxy)carbonyl)oxy)pentadecyl 6,6-bis(octyloxy)hexanoate] | 0.145 | 106.7 | 0.145 | 106.7 | 0.141 | 102.6 | 0.155 | 102.6 | 0.103 | 122.6 | 0.112 | 83.2 | 0.128 | 101.6 | 8.4 | 0.075 | 95.7 | Expression of protein following IV injection of encapsulated mRNA (human leptin [2]; 0.2 mpk, ob/ob): 21.4 ng/mL |
| CCCCC/C=C\C/C=C\CCCCCCCC(=O)OCC(COC(=O)CCCCCCC/C=C\C/C=C\CCCCC)OC(=O)CCC(CCCCCCCCCCCC)OC(=O)OCCCN(C)C (centres unmarked) [Example 80, (9Z,9′Z,12Z,12′Z)-2-((4-(((3-(dimethylamino)propoxy)carbonyl)oxy)hexadecanoyl)oxy)propane-1,3-diyl bis(octadeca-9,12-dienoate)] | 0.085 | 193.5 |  |  |  |  |  |  |  |  | 0.083 | 166.0 |  |  |  | 0.051 | 97.3 | FVII knock-down following IV injection of encapsulated siRNA (Factor VII): 95%/0.03 |
| CCCCC/C=C\C/C=C\CCCCCCCCC(CCC(=O)OC(COC(=O)CCCCCCC)COC(=O)CCCCCCC)OC(=O)OCCCN(C)C (centres unmarked) [Example 94, 2-(((13Z,16Z)-4-(((3-(dimethylamino)propoxy)carbonyl)oxy)docosa-13,16-dienoyl)oxy)propane-1,3-diyl dioctanoate] | 0.093 | 129.2 | 0.113 | 76.9 | 0.079 | 148.3 | 0.153 | 109.8 | 0.101 | 119.1 | 0.099 | 108.5 | 0.152 | 123.5 |  | 0.073 | 122.6 |  |
